Results: patent publication US10077237B2 (Sanofi, priority 2013, dated 2018)
pEC50: −log10 of the molar value. Values joined by “and” are separate entries in the source; they are usually repeats but may differ in a detail not shown here. Identical values can stand only once. Counter-ions that a name gives are not always drawn.

Biological target: T1, recombinant human AMPK complex, containing α2β1γ2 (Homo sapiens, UniProt P54646+Q9Y478)
T1 construct: hsAMPKα2-552-His, hsAMPKβ1-2-270 and hsAMPKγ-2-569 respectively; hsAMPKβ1-2-270; hsAMPKγ-2-569; His (C); made in house; host or cells: Spodoptera frugiperda Sf21 (baculovirus)
T1 sequence (P54646 2-552): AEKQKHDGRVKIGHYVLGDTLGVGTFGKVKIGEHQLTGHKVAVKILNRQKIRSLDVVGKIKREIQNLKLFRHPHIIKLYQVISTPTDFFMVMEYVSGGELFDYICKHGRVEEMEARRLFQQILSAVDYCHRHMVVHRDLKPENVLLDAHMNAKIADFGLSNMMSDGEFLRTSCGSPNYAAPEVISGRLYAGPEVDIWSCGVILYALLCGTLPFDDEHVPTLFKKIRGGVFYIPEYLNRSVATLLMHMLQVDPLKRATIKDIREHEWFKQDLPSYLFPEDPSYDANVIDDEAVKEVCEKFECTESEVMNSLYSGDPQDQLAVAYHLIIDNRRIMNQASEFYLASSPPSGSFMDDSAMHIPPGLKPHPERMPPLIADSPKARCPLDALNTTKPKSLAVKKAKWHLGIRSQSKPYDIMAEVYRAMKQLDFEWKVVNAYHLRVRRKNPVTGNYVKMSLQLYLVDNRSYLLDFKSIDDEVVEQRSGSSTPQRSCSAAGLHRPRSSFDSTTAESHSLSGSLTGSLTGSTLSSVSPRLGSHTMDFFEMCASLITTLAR
T1 sequence (Q9Y478 2-270): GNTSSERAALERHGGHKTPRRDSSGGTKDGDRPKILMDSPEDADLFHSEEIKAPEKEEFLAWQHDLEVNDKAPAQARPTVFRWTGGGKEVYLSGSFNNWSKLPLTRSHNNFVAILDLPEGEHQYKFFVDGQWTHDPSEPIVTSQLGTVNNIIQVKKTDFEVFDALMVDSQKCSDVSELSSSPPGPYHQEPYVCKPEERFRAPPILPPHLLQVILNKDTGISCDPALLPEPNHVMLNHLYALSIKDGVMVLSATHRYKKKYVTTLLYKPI
T1 sequence (Q9UGJ0 2-569 partner limits assumed): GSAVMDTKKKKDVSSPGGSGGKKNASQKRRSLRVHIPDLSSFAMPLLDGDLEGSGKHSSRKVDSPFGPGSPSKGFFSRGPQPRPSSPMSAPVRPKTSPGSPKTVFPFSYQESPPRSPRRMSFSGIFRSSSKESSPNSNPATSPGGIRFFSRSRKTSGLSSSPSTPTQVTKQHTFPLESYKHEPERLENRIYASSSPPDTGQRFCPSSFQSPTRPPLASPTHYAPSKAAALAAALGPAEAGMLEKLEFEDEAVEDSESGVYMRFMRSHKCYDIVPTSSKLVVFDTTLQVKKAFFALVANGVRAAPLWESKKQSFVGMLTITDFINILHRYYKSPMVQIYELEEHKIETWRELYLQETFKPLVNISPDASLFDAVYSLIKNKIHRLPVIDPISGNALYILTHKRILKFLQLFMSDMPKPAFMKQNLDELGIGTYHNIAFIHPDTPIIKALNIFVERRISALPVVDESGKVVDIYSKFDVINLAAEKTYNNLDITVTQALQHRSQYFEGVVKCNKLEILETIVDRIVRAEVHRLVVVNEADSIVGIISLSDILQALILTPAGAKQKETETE
Assay: AMPK in vitro activation assay (HTRF)
Type: biochemical
Details: for pEC50: HTRF, recombinant human α2β1γ2 AMPK, 200 μM ATP, biotinylated ACC-CREBp peptide, repeat determinations on separate lines
Summary of the method: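 Sf21-expressed, Ni-NTA partially purified α2β1γ2 complex preincubated 30 min at room temperature with compound (0.5% DMSO) in HEPES pH 7.0, MgCl2, DTT. Reaction was started with a solution holding 200 μM ATP and 2 or 0.08 μM biotinylated ACC-CREBp peptide, run 45 min at 37° C, then read by HTRF with anti-pS133-CREB; EC50 from percent over basal.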

[1] = potentiation of AMPK activity as percent over the basal signal (without compound)

For COc1cc(C(O)=C2C(=O)Nc3cc(F)c(-c4ccc(-c5cccc(OC)c5O)cc4)c(F)c32)on1 [Compound 92, 4,6-difluoro-3-[hydroxy-(3-methoxyisoxazol-5-yl)methylene]-5-[4-(2-hydroxy-3-methoxy-phenyl)phenyl]indolin-2-one], the pEC50 was 9.52 and the Emax [1] was 172%.
In the case of O=C1Nc2cc(Cl)c(-c3ccc(C4(CO)CC4)cc3)cc2C1=C(O)c1cc(Br)no1 [Compound 73, 3-[1-(3-Bromo-isoxazol-5-yl)-1-hydroxy-methylidene]-6-chloro-5-[4-(1-hydroxymethyl-cyclopropyl)phenyl]-1,3-dihydro-indol-2-one], the pEC50 was 8.22 and the Emax [1] was 148%.
With Cc1cc(C(O)=C2C(=O)Nc3cc(C)c(-c4ccc(N5CCOCC5)cc4)cc32)on1 [Compound 31, 3-[1-Hydroxy-1-(3-methyl-isoxazol-5-yl)-methylidene]-6-methyl-5-(4-morpholin-4-yl-phenyl)-1,3-dihydro-indol-2-one] the pEC50 was 6.27 and the Emax [1] was 147%.
Cc1cc(C(O)=C2C(=O)Nc3cc(Cl)c(-c4ccc(C5(CO)CC5)cc4)cc32)sn1 [Compound 23, 6-Chloro-5-[4-(1-hydroxymethyl-cyclopropyl)-phenyl]-3-[1-hydroxy-1-(3-methyl-isothiazol-5-yl)-methylidene]-1,3-dihydro-indol-2-one] was tested, and the pEC50 was 8.52 and the Emax [1] was 158%.
With COc1cc(C(O)=C2C(=O)Nc3cc(Cl)c(-c4ccc(N5CCOCC5)c(F)c4)cc32)on1 [Compound 149, 6-chloro-5-(3-fluoro-4-morpholino-phenyl)-3-[hydroxy-(3-methoxyisoxazol-5-yl)methylene]indolin-2-one] the pEC50 was 8.22 and the Emax [1] was 170%.
For COc1cc(C(O)=C2C(=O)Nc3cc(Cl)c(-c4ccc(C5=CCOCC5)cc4)cc32)on1 [Compound 67, 6-Chloro-5-[4-(3,6-dihydro-2H-pyran-4-yl)phenyl]-3-[1-hydroxy-1-(3-methoxy-isoxazol-5-yl)methylidene]-1,3-dihydro-indol-2-one], the pEC50 was 8.52 and the Emax [1] was 192%.
In the case of COc1ccc(C(O)=C2C(=O)Nc3cc(Cl)c(-c4ccc(-c5cccc(OC)c5O)cc4)cc32)cc1F [Compound 84, 6-chloro-3-[(3-fluoro-4-methoxy-phenyl)hydroxy-methylene]-5-[4-(2-hydroxy-3-methoxy-phenyl)phenyl]indolin-2-one], the pEC50 was 9.22 and 9.00 and the Emax [1] was 170%.
“6-Chloro-3-[1-hydroxy-1-(3-methoxy-isoxazol-yl)-methylidene]-5-[4-(1-hydroxymethyl-cyclopropyl)-phenyl]-1,3-dihydro-indol-2-one [Compound 54]” was tested, and the pEC50 was 8.30 and the “α2β1γ2 AMPK Emax” value [1] was “(187) %”.
Compound Cc1cc(C(O)=C2C(=O)Nc3cc(Cl)c(-c4ccc(N5CCN(C)CC5)cc4)cc32)on1 [Compound 74, 6-Chloro-3-[1-hydroxy-1-(3-methyl-isoxazol-5-yl)methylidene]-5-[4-(4-methyl-piperazin-1-yl)-phenyl]-1,3-dihydro-indol-2-one, hydrochloride] has a pEC50 of 6.95 and an Emax [1] of 213%.
COc1cc(C(O)=C2C(=O)Nc3cc(Cl)c(-c4ccc(C5CC(O)C5)cc4)cc32)on1 (stereo not shown) [Compound 135, 6-chloro-5-[4-(3-hydroxycyclobutyl)phenyl]-3-[hydroxy-(3-methoxyisoxazol-5-yl)methylene]indolin-2-one] gave a pEC50 of 8.05 and an Emax [1] of 319%.
In the case of CN(C)c1ccc(-c2cc3c(cc2Cl)NC(=O)C3=C(O)c2ccc(C(=O)O)cc2)cc1 [Compound 9, 4-{[6-Chloro-5-(4-dimethylamino-phenyl)-2-oxo-1,2-dihydro-indolylidene]-hydroxy-methyl}-benzoic acid], the pEC50 was 7.62 and 7.64 and the Emax [1] was 120%.
Work on COc1cccc(C(O)=C2C(=O)Nc3cc(Cl)c(-c4ccc(N5CCOCC5)cc4)cc32)c1 [Compound 50, 6-Chloro-3-[1-hydroxy-1-(3-methoxy-phenyl)-methylidene]-5-(4-morpholin-4-yl-phenyl)-1,3-dihydro-indol-2-one] yielded a pEC50 of 7.40.
With O=C1Nc2cc(Cl)c(-c3ccc(C4CC(O)C4)cc3)cc2C1=C(O)c1ccccc1F (stereo not shown) [Compound 171, 6-chloro-3-[(2-fluorophenyl)hydroxy-methylene]-5-[4-(3-hydroxycyclobutyl)phenyl]indolin-2-one] the pEC50 was 8.22 and the Emax [1] was 197%.
With O=C1Nc2cc(Cl)c(-c3ccc(C4(CO)CC4)cc3)cc2C1=C(O)c1ccco1 [Compound 126, 6-chloro-3-[2-furyl(hydroxy)methylene]-5-[4-[1-(hydroxymethyl)cyclopropyl]phenyl]indolin-2-one] the pEC50 was 9.52 and the Emax [1] was 295%.
For COc1cc(C(O)=C2C(=O)Nc3cc(Cl)c(-c4ccc(OC5CCN(C)CC5)cc4)cc32)on1 [Compound 124, 6-chloro-3-[hydroxy-(3-methoxyisoxazol-5-yl)methylene]-5-[4-[(1-methyl-4-piperidyl)oxy]phenyl]indolin-2-one hydrochloride], the pEC50 was 7.60 and the Emax [1] was 231%.
For COc1cc(C(O)=C2C(=O)Nc3cc(F)c(-c4ccc(C5(CO)CC5)cc4)c(F)c32)on1 [Compound 83, 4,6-difluoro-3-[hydroxy-(3-methoxyisoxazol-5-yl)methylene]-5-[4-[1-(hydroxymethyl)cyclopropyl]phenyl]indolin-2-one], the pEC50 was 10.00.
COc1cc(C(O)=C2C(=O)Nc3cc(Cl)c(-c4ccc(OC5CCC(O)CC5)cc4)cc32)on1 (stereo not shown) [Compound 152, 6-chloro-5-[4-(4-hydroxycyclohexoxy)phenyl]-3-[hydroxy-(3-methoxyisoxazol-5-yl)methylene]indolin-2-one] gave a pEC50 of 8.05 and an Emax [1] of 223%.
In the case of Cn1ccc(C(O)=C2C(=O)Nc3cc(Cl)c(-c4ccc(N5CCOCC5)cc4)cc32)n1 [Compound 53, 6-Chloro-3-[1-hydroxy-1-(1-methyl-1H-pyrazol-3-yl)-methylidene]-5-(4-morpholin-4-yl-phenyl)-1,3-dihydro-indol-2-one], the pEC50 was 5.77 and the Emax [1] was 180%.
COc1cc(C(O)=C2C(=O)Nc3cc(Cl)c(-c4ccc(N(C)C)cc4)cc32)on1 [Compound 127, 6-chloro-5-(4-dimethylaminophenyl)-3-[hydroxy-(3-methoxyisoxazol-5-yl)methylene]indolin-2-one] showed an Emax [1] of 296%.
In the case of Cc1cc(C(O)=C2C(=O)Nc3cc(Cl)c(-c4ccc(C(O)(CO)CCl)cc4)cc32)on1 (stereo not shown) [Compound 80, 6-chloro-5-[4-[1-(chloromethyl)-1,2-dihydroxy-ethyl]phenyl]-3-[hydroxy-(3-methylisoxazol-5-yl)methylene]indolin-2-one], the pEC50 was 7.82 and the Emax [1] was 99%.
Work on O=C1Nc2cc(Cl)c(-c3ccc(C4(CO)CC4)cc3)cc2C1=C(O)c1ccc(F)c(F)c1 [Compound 143, 6-chloro-3-[(3,4-difluorophenyl)hydroxy-methylene]-5-[4-[1-(hydroxymethyl)cyclopropyl]phenyl]indolin-2-one] yielded a pEC50 of 8.52 and an Emax [1] of 230%.
COc1ccc(-c2cc3c(cc2Cl)NC(=O)C3=C(O)c2cc(C)no2)cc1F [Compound 55, 6-Chloro-5-(3-fluoro-4-methoxy-phenyl)-3-[1-hydroxy-1-(3-methyl-isoxazol-5-yl)-methylidene]-1,3-dihydro-indol-2-one] showed a pEC50 of 6.37 and an Emax [1] of 174%.
Cc1cc(C(O)=C2C(=O)Nc3cc(F)c(-c4ccc(C5(CO)CC5)cc4)cc32)on1 [Compound 72, 6-Fluoro-5-[4-(1-hydroxymethyl-cyclopropyl)phenyl]-3-[1-hydroxy-1-(3-methyl-isoxazol-5-yl)methylidene]-1,3-dihydro-indol-2-one] was tested, and the pEC50 was 8.70 and the Emax [1] was 159%.
Cc1cc(C(O)=C2C(=O)Nc3cc(Cl)c(-c4ccc(N5CCOCC5)cc4)cc32)no1 [Compound 28, 6-Chloro-3-[1-hydroxy-1-(5-methyl-isoxazol-3-yl)-methylidene]-5-(4-morpholin-4-yl-phenyl)-1,3-dihydro-indol-2-one] gave a pEC50 of 6.89 and an Emax [1] of 150%.
For CC(=O)NCCOc1ccc(-c2cc3c(cc2Cl)NC(=O)C3=C(O)c2cc(C)no2)cc1 [Compound 104, N-[2-[4-[6-chloro-3-[hydroxy-(3-methylisoxazol-5-yl)methylene]-2-oxo-indolin-5-yl]phenoxy]ethyl]acetamide], the pEC50 was 7.82 and the Emax [1] was 107%.
In the case of Cc1cc(C(O)=C2C(=O)Nc3cc(Cl)c(-c4ccc(OCCN5CCOCC5)cc4)cc32)on1 [Compound 82, 6-chloro-3-[hydroxy-(3-methylisoxazol-5-yl)methylene]-5-[4-(2-morpholinoethoxy)phenyl]indolin-2-one hydrochloride], the pEC50 was 6.55 and the Emax [1] was 130%.
COc1cc(C(O)=C2C(=O)Nc3cc(Cl)c(-c4ccc(N(C)C)cc4F)cc32)on1 [Compound 148, 6-chloro-5-[4-(dimethylamino)-2-fluoro-phenyl]-3-[hydroxy-(3-methoxyisoxazol-5-yl)methylene]indolin-2-one] was tested, and the pEC50 was 9.00 and the Emax [1] was 158%.
With COc1cc(C(O)=C2C(=O)Nc3cc(Cl)c(-c4ccc(C5CCN(CC(F)(F)F)C5)cc4)cc32)on1 (stereo not shown) [Compound 167, 6-chloro-3-[hydroxy-(3-methoxyisoxazol-5-yl)methylene]-5-[4-[1-(2,2,2-trifluoroethyl)pyrrolidin-3-yl]phenyl]indolin-2-one hydrochloride] the pEC50 was 6.93 and the Emax [1] was 156%.
In the case of Cc1cc(C(O)=C2C(=O)Nc3cc(Cl)c(-c4ccc(C#N)cc4)cc32)on1 [Compound 38, 4-{6-Chloro-3-[1-hydroxy-1-(3-methyl-isoxazol-5-yl)-methylidene]-2-oxo-2,3-dihydro-1H-indol-5-yl}-benzonitrile], the pEC50 was 6.15 and the Emax [1] was 133%.
